Results taken from ChEMBL document CHEMBL3352377, “Discovery of selective and orally bioavailable protein kinase Cθ (PKCθ) inhibitors from a fragment hit” (J Med Chem, 2015).

How the values were obtained:
[1] = biological target: Protein kinase C theta type (Homo sapiens, UniProt Q04759)
Description: Inhibition of human recombinant PKCtheta expressed in Sf21 cells using Bio-cdc peptide substrate and ATP after 60 mins by time-resolved fluorescence in-vitro kinase assay

[2] = biological target: Protein kinase C alpha type (Homo sapiens, UniProt P17252)
[3] = Unbound intrinsic clearance in rat microsomes; assay type: ADME, Microsome
[4] = Permeability from apical to basolateral side in MDCK2-MDR1 cells at pH 7.4; assay type: ADME, cell-based, Canis lupus familiaris, MDCK-II; conditions: dog, MDCK-MDR1, pH 7.4; read-out: permeability
cells = conditions: Homo sapiens, T-Blast, 24 h
Description: Inhibition of anti-CD3/anti-CD28 antibody-induced IL2 production in human T-Blast cells after 24 hrs

[5] = Unbound intrinsic clearance in human microsomes; assay type: ADME, Microsome
[6] = Unbound intrinsic clearance in mouse microsomes; assay type: ADME, Microsome

Sequence of Protein kinase C theta type (Q04759 whole entry): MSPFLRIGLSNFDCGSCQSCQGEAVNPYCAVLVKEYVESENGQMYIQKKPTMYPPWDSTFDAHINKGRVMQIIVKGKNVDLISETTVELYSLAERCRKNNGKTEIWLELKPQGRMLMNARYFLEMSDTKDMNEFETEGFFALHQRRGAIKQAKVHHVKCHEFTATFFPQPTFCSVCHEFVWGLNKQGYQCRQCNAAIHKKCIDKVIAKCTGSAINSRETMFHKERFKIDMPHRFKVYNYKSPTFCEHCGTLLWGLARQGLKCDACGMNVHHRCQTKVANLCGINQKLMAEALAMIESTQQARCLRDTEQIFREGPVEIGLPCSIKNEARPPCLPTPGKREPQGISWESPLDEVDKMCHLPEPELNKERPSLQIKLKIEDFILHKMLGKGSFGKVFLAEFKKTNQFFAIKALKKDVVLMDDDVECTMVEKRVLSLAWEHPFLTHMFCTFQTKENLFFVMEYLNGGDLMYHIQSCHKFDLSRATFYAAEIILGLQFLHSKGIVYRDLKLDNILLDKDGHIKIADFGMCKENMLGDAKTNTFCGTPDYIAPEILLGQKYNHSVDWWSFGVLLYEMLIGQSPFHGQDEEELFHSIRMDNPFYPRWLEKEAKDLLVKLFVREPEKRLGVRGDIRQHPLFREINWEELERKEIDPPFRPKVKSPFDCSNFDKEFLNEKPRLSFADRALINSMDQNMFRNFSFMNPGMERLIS

| IC50 [1] | IC50 [2] | CL free [3] | Papp A→B [4] | IC50 (cells) | CL free [5] | CL free [6] | Structure (SMILES) |
| --- | --- | --- | --- | --- | --- | --- | --- |
| 3.5 µM | – | – | – | – | – | – | O=C1CN2C(=NN1)COc1ccc(NC(=O)C3CCNCC3)cc12 |
| 16 µM | – | – | – | – | – | – | CN(C)Cc1ccc2c(c1)OCC1=NNC(=O)CN12 |
| 1.3 µM | 7.1 µM | – | – | – | – | – | O=C1CN2C(=NN1)COc1ccc(NC3CNC3)cc12 |
| 0.11 µM | 4.1 µM | 61.7 mL/min/kg | 0.31 ×10⁻⁶ cm/s | 0.43 µM | < 33 mL/min/kg | – | Cc1cc2c(cc1NC1CNC1)N1C(=NNC(=O)C1C)CO2 (stereo not drawn) |
| 38 µM | – | – | – | – | – | – | O=C1CN2C(=NN1)COc1ccc(NC3CCC3)cc12 |
| 0.23 µM | 9.4 µM | 48.3 mL/min/kg | 0.42 ×10⁻⁶ cm/s | 2.7 µM | 33 mL/min/kg | – | CC1C(=O)NN=C2COc3ccc(NC4CNC4)cc3N21 (stereo not drawn) |
| 20 µM | – | – | – | – | – | – | O=C1CN2C(=NN1)COc1ccc(NCC3CCNC3)cc12 (stereo not drawn) |
| 0.76 µM | 6.6 µM | < 103 mL/min/kg | 0.23 ×10⁻⁶ cm/s | 2.4 µM | 110 mL/min/kg | 417 mL/min/kg | C[C@H]1C(=O)NN=C2COc3cc(-c4ccccc4)c(NC4CNC4)cc3N21 |
| 0.1 µM | 6.9 µM | 50 mL/min/kg | 0.86 ×10⁻⁶ cm/s | 0.31 µM | < 26.7 mL/min/kg | – | CC1C(=O)NN=C2COc3cc(F)c(NC4CNC4)cc3N21 (stereo not drawn) |
| 46 µM | – | – | – | – | – | – | CN(C)CC(=O)Nc1ccc2c(c1)N1CC(=O)NN=C1CO2 |
| > 50 µM | > 50 µM | – | – | – | – | – | O=C1NN=C2COc3ccc(NC4CNC4)cc3N2C1c1ccccc1 (stereo not drawn) |
| 3.5 µM | > 50 µM | – | – | – | – | – | O=C1NN=C2COc3ccc(NC4CNC4)cc3N2C1C1CC1 (stereo not drawn) |
| 46 µM | – | – | – | – | – | – | O=C1CN2C(=NN1)COc1ccc(NC(=O)C3CCNC3)cc12 (stereo not drawn) |
| 19 µM | – | – | – | – | – | – | O=C1CN2C(=NN1)COc1ccc(NC(=O)C3CNC3)cc12 |
| 18 µM | – | – | – | – | – | – | CC(N)CNc1ccc2c(c1)N1CC(=O)NN=C1CO2 (stereo not drawn) |
| 3.3 µM | – | – | – | – | – | – | O=C1CN2C(=NN1)COc1ccc(NC3CCNC3)cc12 (stereo not drawn) |

| IC50 [1] | IC50 [2] | CL free [3] | Papp A→B [4] | IC50 (cells) | CL free [5] | CL free [6] | Structure (SMILES) |
| --- | --- | --- | --- | --- | --- | --- | --- |
| 17 µM | – | – | – | – | – | – | O=C1CN2C(=NN1)COc1ccc(NCC3CNC3)cc12 |
| – | 2.2 µM | < 67 mL/min/kg | 0.85 ×10⁻⁶ cm/s | 0.23 µM | 56.7 mL/min/kg | – | CC1C(=O)NN=C2COc3cc(C(F)(F)F)c(NC4CNC4)cc3N21 (stereo not drawn) |
| 21 µM | – | – | – | – | – | – | O=C1CN2C(=NN1)COc1ccc(NC3CCNCC3)cc12 |
| 0.13 µM | 2.2 µM | 88.3 mL/min/kg | 0.28 ×10⁻⁶ cm/s | 0.34 µM | < 33 mL/min/kg | – | CC(C)c1cc2c(cc1NC1CNC1)N1C(=NNC(=O)C1C)CO2 (stereo not drawn) |
| > 50 µM | – | – | – | – | – | – | O=C1CN2C(=NN1)COc1ccc(NC(=O)CC3CCNCC3)cc12 |
| 14 µM | – | – | – | – | – | – | O=C1CN2C(=NN1)COc1ccc(NC3CCCNC3)cc12 (stereo not drawn) |
| 0.059 µM | 1.6 µM | 81.7 mL/min/kg | 0.5 ×10⁻⁶ cm/s | 0.39 µM | < 46.7 mL/min/kg | – | CC1C(=O)NN=C2COc3cc(C(F)(F)F)c(CC4CNC4)cc3N21 (stereo not drawn) |
| 31 µM | – | – | – | – | – | – | O=C1CN2C(=NN1)COc1ccc(NCC3CCNCC3)cc12 |
| 0.19 µM | 3 µM | < 73.3 mL/min/kg | – | 0.91 µM | 51.7 mL/min/kg | – | CC1C(=O)NN=C2COc3cc(C(F)(F)F)c(OC4CNC4)cc3N21 (stereo not drawn) |
| 1 µM | 5.4 µM | – | – | – | – | – | CCC1C(=O)NN=C2COc3ccc(NC4CNC4)cc3N21 (stereo not drawn) |
| 8.9 µM | – | – | – | – | – | – | O=C1CN2C(=NN1)COc1ccc(NC3CCCNCC3)cc12 (stereo not drawn) |
| – | 2.9 µM | 118 mL/min/kg | 0.25 ×10⁻⁶ cm/s | 1 µM | 85 mL/min/kg | < 120 mL/min/kg | C[C@H]1C(=O)NN=C2COc3cc(C(F)(F)F)c(NC4CNC4)cc3N21 |
| > 50 µM | – | – | – | – | – | – | O=C1CN2C(=NN1)COc1ccc(NC3COC3)cc12 |
| 0.39 µM | 3 µM | – | 0.16 ×10⁻⁶ cm/s | 4.2 µM | – | < 73.3 mL/min/kg | Cc1cc2c(cc1NC1CNC1)N1C(=NNC(=O)[C@@H]1C)CO2 |
| 4.5 µM | – | – | – | – | – | – | CN1CCC(C(=O)Nc2ccc3c(c2)N2CC(=O)NN=C2CO3)CC1 |
